Assay results as given in paper PMC6930863 (CPT: Pharmacometrics & Systems Pharmacology, 2019).
Values joined by “and” are separate entries in the source; they are usually repeats but may differ in a detail not shown here. Equal entries are not always repeated. Where two headings read alike, the source gives them in different places.

How the values were obtained:
[1] = cited from earlier work
[2] = human; cited from earlier work
[3] = rat
[4] = tested on: proliferative cells (the stem cells and proliferative progenitors); test: Translated and calibrated human system toxicology model; set-up: species or system humans; settings: fitted to published villus area data after chemotherapy, value (% RSE)
[5] = tested on: proliferative crypt cells, including stem cells and proliferative progenitor cells; assay type: in vivo, Sprague-Dawley rats; settings: rat, on proliferative crypt cells, fitted to plasma citrulline
[6] = rat, fixed to literature value; cited from earlier work
[7] = human; cited from earlier work; remark: listed apart in the source

CCc1c2c(nc3ccc(OC(=O)N4CCC(N5CCCCC5)CC4)cc13)-c1cc3c(c(=O)n1C2)COC(=O)[C@]3(O)CC [Irinotecan]
occurrence of ≥grade 3 diarrhea in the BI3W schedule compared with Q3W ([1]; 175 mg/m^2 days 1 and 10 every 3 weeks vs 350 mg/m^2 once every 3 weeks): significantly higher
efficacy in both dosing regimens (Q3W and BI3W) ([1]; 350 mg/m^2 Q3W vs 175 mg/m^2 BI3W): similar
k12, rate constant from central to peripheral 1 of irinotecan [2]: 57.8 h⁻¹
k21, rate constant from peripheral 1 to central of irinotecan [2]: 2.58 h⁻¹
k31, rate constant from peripheral 2 to central of irinotecan [2]: 0.0812 h⁻¹
Vmax, maximum rate of conversion from irinotecan to SN-38 ([3]; i.p. irinotecan, population TK model estimate): 20.6 nmol/h/kg
Dmaxp, coefficient for maximum irinotecan loss during absorption ([3]; i.p., population TK model estimate): 430 mg/kg
ka, absorption rate constant of irinotecan ([3]; i.p., % RSE NA): 10 h⁻¹

CCc1c2c(nc3ccc(O)cc13)-c1cc3c(c(=O)n1C2)COC(=O)[C@]3(O)CC [SN‐38, 7‐ethyl‐10‐hydroxy‐camptothecin]
kkill, cytotoxic rate by SN-38 [4]: 11.0 1/day/μM and 11.0 (0.0328) 1/day/μM
kkill, cytotoxic rate by SN-38 [5]: 146 M⁻¹ s⁻¹
Vm, central volume of SN-38 [2]: 200 L
kem, elimination rate constant of SN-38 [2]: 2.52 h⁻¹
mk12, rate constant from central to peripheral 1 of SN-38 [2]: 2.6 h⁻¹
mk21, rate constant from peripheral 1 to central of SN-38 [2]: 0.0584 h⁻¹
CLm, clearance of SN-38 ([3]; after i.p. irinotecan): 7.73 mL/min/kg
Vm, volume of SN-38 ([3]; after i.p. irinotecan, % RSE NA): 0.01 L/kg

NC(=O)NCCC[C@H](N)C(=O)O [citrulline]
kout, elimination rate constant of plasma citrulline [6]: 8.52 day⁻¹
kout, elimination rate constant of plasma citrulline [7]: 18.6 day⁻¹
plasma citrulline half-life [7]: 39 to 68.4 min
